Assay results taken from paper PMC5442318, “Hundreds of dual-stage antimalarial molecules discovered by a functional gametocyte screen” (Nature Communications, 2017).
Like-named read-outs stand apart in the source and are kept apart here.

Key:
[1] = tested on: P. falciparum asexual blood stages; details: read-out: Pf Asexual blood stages XC50, cited from earlier work
[2] = tested on: P. falciparum stage V female gametocytes; test: P. falciparum female gametocyte activation assay (Pf FGAA), 24 h or 48 h preincubation, Pfs25 expression readout; type: cell-based, Plasmodium falciparum NF54; details: mean, read-out: Gametocytes mean Pf FGAA IC50
Protocol: P. falciparum NF54 (originally isolated from an imported malaria case in the Netherlands in the 1980s; BEI Resources, cat. no. MRA-1000) asexual-stage culture was performed as described by Trager and Jensen[37]. Cultures synchronized at the ring stage were used to start gametocyte cultures (day 0) at 1% parasitaemia and 4% haematocrit in 200 ml final volume using culture bottles (Nalgene 3110-42, Thermo Scientific). Complete culture medium (RPMI 1640 supplemented with 25 mM HEPES, 50 μg ml^−1 hypoxanthine, 2 g l^−1 NaHCO3 and 10% pooled human male type A+ serum) was totally replaced daily for 14 days without fresh erythrocyte addition. Human serum was obtained from Interstate Blood Bank, A^+ serotype; no aspirin 2 h before drawing and no antimalarials 2 weeks before drawing. To ensure a stable temperature at 37 °C, which is crucial for gametocyte production and maturation, pre-warmed medium and a slide warmer (XH-2001, Premiere) were used. Under these conditions, parasitaemia reaches a peak of asexual stages on days 4–5, and the first gametocytes are differentiated in culture on day 6. Sexual-stage development was monitored microscopically by Giemsa-stained thin blood smears at day 7 (mainly asexual stages and stages I to III gametocytes) and day 14 (stages IV and V gametocytes).
Cultures showing mainly stage V gametocytes were purified by differential sedimentation as previously reported. The gametocyte concentration was adjusted to plate 8,000 gametocytes per well (100 μl per well) in 384-well poly-D-lysine coated plates (781946, Greiner Bio-One) containing the compounds to test. […] Female gametocyte activation was then triggered by temperature drop and addition of xanthurenic acid (D120804, Sigma) as previously described. To detect female gametes, monoclonal anti-Pfs25 antibody[38] 4B7 (BEI Resources (formerly MR4), cat. no. MRA-315) conjugated to the Cy3 fluorochrome (GE Healthcare) was added to ookinete medium (RPMI 1640 supplemented with 25 mM HEPES, 50 μg ml^−1 hypoxanthine, 2 g l^−1 NaHCO3, 100 μM xanthurenic acid and 20% human serum) at a final concentration of 0.5 μg ml^−1. Activated cultures were then kept at 26 °C for 24 h protected from light, and image acquisition was performed in the Opera High-Content Screening System (PerkinElmer). Using × 10 air objective, five images per well were taken using 532 nm excitation. Images were analysed with a Columbus image data storage and analysis system (PerkinElmer) based on a script specifically designed for this assay that considers size, roundness and intensity of fluorescence of the female activated gametocytes.
Compounds were dissolved in 100% DMSO and dispensed in the 384-well plates using an Echo-CRS liquid handler. Compounds were tested in 2–3 independent experiments. […] Based on that, Z′ factor was calculated for each plate and only those ones with values higher than 0.4 were considered acceptable for data analysis.
Assay performance statistics, such as signal to background ratio, Z′ and robust 3 s.d. activity cut-off were calculated using templates in ActivityBase XE (IDBS, Guilford, Surrey, UK). Hit population analysis and visualization were conducted using Spotfire DecisionSite (Spotfire, Inc., Somerville, MA, USA). The pIC50 (−log IC50) values were obtained using the ActivityBase XE nonlinear regression function in the full curve analysis bundle.

HepG2 cells = test: HepG2 cytotoxicity assay; type: cell-based
Protocol: After incubation, plates and CellTiter-Glo Reagent (G7571, Promega) were equilibrated at room temperature for 30 min before proceeding to develop the luminescent signal. Using a Multidrop combi dispenser, 25 μl per well of the signal developer were added to the plates and after 10 min at room temperature for stabilization, plates were read on the ViewLux system (Perkin Elmer).

[3] = tested on: P. falciparum stages IV–V gametocytes; test: Gametocytocidal ATP-depletion assay (gametocyte ATP bioluminescence); type: cell-based, Plasmodium falciparum
Protocol: In parallel, the set of confirmed hits from the Pf FGAA screen was cross-compared in the gametocyte ATP-depletion assay, at 2 μM single concentration (Supplementary Data 1). This assay monitors ATP levels as surrogate of gametocyte viability.
‘Viability' of mature gametocytes was determined using the gametocyte ATP bioluminiscence assay. Briefly, stages IV–V gametocyte cultures were double-purified by differential sedimentation followed by magnetic isolation. Then, parasites (50 μl per well containing 12,500 gametocytes) were added to compound pre-dispensed 384-well plates (781091, Greiner Bio-One) and incubated at 37 °C for 48 h (3% O2, 5% CO2 and 92% N2). BacTiter-Glo kit (G8231, Promega) was used to determine the ATP levels of ‘live' parasites according to the manufacturer's instructions. After reagent addition (50 μl per well), luminescence of the plates was measured using a microplate reader (HTS counter Victor, Wallac).

[4] = TCAMS data, ref 1 (Gamo et al., 2010)
[5] = TCAMS asexual blood stage data, ref 1 (Gamo, F. J. et al., Nature 465, 305-310, 2010)
[6] = P. falciparum female gametocytes

| SMILES | IC50 [1, 4] | IC50 [2] | HepG2 cells mean TOX50 (HepG2 cells; mean) | Gametocytes mean ATP inhibition at 2µM (%) [3] | IC50 [1, 5] | IC50 [2, 6] | HepG2 cells mean TOX50 (HepG2 cells; HepG2 cells; mean) | Gametocytes mean ATP inhibition at 2µM [3] | IC50 ([2]; P. falciparum female gametocyte activation assay) | HepG2 cells mean TOX50 (HepG2 cells; mean; HepG2 cells) |
| --- | --- | --- | --- | --- | --- | --- | --- | --- | --- | --- |
| Cl.Clc1ccc(CNCCCCCCCNCc2ccc(Cl)c(Cl)c2)cc1Cl [TCMDC-138075] | 370 nM | 700 nM | 4.57 µM | -3.08% |  |  |  |  |  |  |
| COc1ccc(CCNCCCCCCNCCc2ccc(-c3ccccc3)cc2)cc1OC.Cl [TCMDC-131267] |  |  |  |  | 960 nM | 1260 nM | 6.90 µM | 51.20% |  |  |
| C=CCOc1ccc2ccccc2c1CNCCCCCCNCc1c(OCC=C)ccc2ccccc12.CS(=O)(=O)O [TCMDC-137340] | 860 nM | 700 nM | 1.93 µM | 58.99% |  |  |  |  |  |  |
| COc1cc2c(cc1CCNCCCCNCCc1cc3c(cc1OC)CCCC3)CCCC2.CS(=O)(=O)O [TCMDC-137319] | 1000 nM | 890 nM | 1.86 µM | 88.42% |  |  |  |  |  |  |
| c1ccc(CNc2cc(-c3ccccn3)nc(-c3ccccn3)n2)cc1 [TCMDC-125421] |  |  |  |  | 300 nM | 320 nM | 13.04 µM | 76.15% |  |  |
| COc1ccc(CCNCCCCCCNCCc2ccc(Cl)cc2)c(Cl)c1OC.Cl [TCMDC-131272] |  |  |  |  | 820 nM | 830 nM | 5.54 µM | 24.24% |  |  |
| COc1c(CCNCCCCNCCc2cc(Cl)c3ccccc3c2OC)cc(Cl)c2ccccc12.CS(=O)(=O)O [TCMDC-137869] | 170 nM | 330 nM | 1.78 µM | 96.85% |  |  |  |  |  |  |
| Br.C/C=C/C=C/C1=NCCc2cc(OCCC)ccc21 [TCMDC-137442] | 910 nM | 1300 nM | 18.29 µM | 30.75% |  |  |  |  |  |  |
| Fc1ccc(OC2CN(c3nccc(NCc4ccccc4Cl)n3)C2)cc1 [TCMDC-135110] |  |  |  |  | 900 nM | 5220 nM | 83.45 µM | 44.31% |  |  |
| CCCOc1ccc2ccccc2c1CNCCCCCCNCc1c(OCCC)ccc2ccccc12.CS(=O)(=O)O [TCMDC-137966] | 790 nM | 1030 nM | 2.00 µM | 42.35% |  |  |  |  |  |  |
| COc1ccc(CCNCCCCNCCc2ccc(OC)c3ccccc23)c2ccccc12.CS(=O)(=O)O [TCMDC-137961] | 450 nM | 480 nM | 2.14 µM | 90.63% |  |  |  |  |  |  |
| O=C(O)C(F)(F)F.O=S(=O)(NCCN1CCCC1)c1ccc(-c2ccc(CNC3Cc4ccccc4C3)cc2)s1 [TCMDC-132234] |  |  |  |  | 590 nM | 2270 nM | 5.83 µM | 1.19% |  |  |
| COc1cc(/C=C(\C2=NC(=O)CS2)c2nc3cccnc3n2C)ccc1O [TCMDC-135917] | 1000 nM | 720 nM | 21.14 µM | 48.81% |  |  |  |  |  |  |
| C[C@H](Cc1ccc(Oc2ccc(C[C@@H](C)NC[C@H](O)c3cccc(Cl)c3)cc2)cc1)NC[C@H](O)c1cccc(Cl)c1.Cl [TCMDC-131560] |  |  |  |  | 560 nM | 720 nM | 2.04 µM | 70.55% |  |  |
| CCc1c(CCNCCCCCCNCCc2ccc3c(c2C)OCO3)ccc2c1OCO2.Cl [TCMDC-132093] |  |  |  |  | 610 nM | 1020 nM | 3.89 µM | 10.41% |  |  |
| O=C(O)CCSSc1cccc[n+]1[O-] [TCMDC-141973] |  |  |  |  | 810 nM |  |  | 100.49% | 40 nM | 19.05 µM |
| c1ccc(C23N=C(Nc4nc5ccccc5[nH]4)NC2(c2ccccc2)NC(Nc2nc4ccccc4[nH]2)=N3)cc1 (stereo not shown) [TCMDC-139082] | 280 nM | 140 nM | 58.90 µM | 65.26% |  |  |  |  |  |  |
| Cc1c2ccncc2c(C)c2c1[nH]c1cc(Cc3ccccc3)c(O)cc12 [TCMDC-132053] |  |  |  |  | 150 nM | 1090 nM | 1.23 µM | -3.89% |  |  |
| FC(F)(F)c1ccc2[nH]c(-c3ccc(-c4ccc(CNCCN5CCNCC5)cc4)s3)nc2c1.O=C(O)C(F)(F)F [TCMDC-132862] |  |  |  |  | 910 nM | 3000 nM | 12.88 µM | -0.18% |  |  |
| OCCN1CCN(c2ccc(Nc3ccnc4cc5ccccc5cc34)cc2)CC1 [TCMDC-123915] |  |  |  |  | 40 nM | 3340 nM | 5.43 µM | 2.56% |  |  |
| CC(C)(C)c1ccc(CN2CCC(CNC(=O)c3cc(-c4ccccc4F)cs3)C2)cc1.O=C(O)C(F)(F)F (stereo not shown) [TCMDC-134443] |  |  |  |  | 560 nM | 830 nM | 9.30 µM | -4.04% |  |  |
| CCCCOc1c(CCNCCCCNCCc2cc(OC)c3ccccc3c2OCCCC)cc(OC)c2ccccc12.CS(=O)(=O)O [TCMDC-137848] | 930 nM | 610 nM | 1.97 µM | 84.96% |  |  |  |  |  |  |
